Where no end group is shown, it is not given here.
Target: T1, human PTHR1 (Homo sapiens, UniProt Q03431)
T1 construct: expressed in transfected cells
T1 sequence (Q03431 27-593): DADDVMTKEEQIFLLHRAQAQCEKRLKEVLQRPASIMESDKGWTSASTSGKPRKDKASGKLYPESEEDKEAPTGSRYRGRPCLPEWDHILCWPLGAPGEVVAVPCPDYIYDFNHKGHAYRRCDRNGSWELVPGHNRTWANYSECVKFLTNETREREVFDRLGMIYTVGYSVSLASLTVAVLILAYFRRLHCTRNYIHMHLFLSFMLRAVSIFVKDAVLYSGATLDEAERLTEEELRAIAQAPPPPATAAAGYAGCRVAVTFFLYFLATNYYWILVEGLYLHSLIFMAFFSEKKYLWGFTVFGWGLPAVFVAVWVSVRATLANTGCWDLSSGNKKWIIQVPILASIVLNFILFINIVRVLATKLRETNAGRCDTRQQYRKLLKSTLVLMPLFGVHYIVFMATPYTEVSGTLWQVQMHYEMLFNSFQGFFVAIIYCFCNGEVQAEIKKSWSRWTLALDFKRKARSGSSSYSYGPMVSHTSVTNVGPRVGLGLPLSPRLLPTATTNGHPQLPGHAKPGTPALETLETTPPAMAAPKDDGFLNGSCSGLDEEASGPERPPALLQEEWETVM
Test: GloSensor cAMP signaling assay in GP‐2.3 cells
Assay type: cell-based
Method: GP‐2.3 cells, an HEK‐293 cell‐ (ATCC CRL‐1573) derived cell line that stably expresses the luciferase‐based pGloSensor‐22F (GloSensor) cAMP reporter plasmid (Promega Corp., […], USA) along with the human PTHR1, were cultured in DMEM (Thermo Fisher Scientific, Waltham, MA, USA) supplemented with FBS (10%). Cells were seeded into white 96‐well plates for GloSensor cAMP assays, and used for assay 2 to 3 days after the monolayer became confluent.16 UGS‐56 cells were derived from the UMR106 rat osteoblastic cell line by stably transfecting the cells to express the GloSensor‐cAMP reporter. B64 cells are a derivative of the porcine kidney cell line, LLC‐PK1 that stably expresses the human PTHR1. COS‐7 cells (ATCC CRL‐1661) were seeded into 10‐cm dishes and transiently transfected to express the human PTHR1 with or without a high‐affinity, negative‐dominant Gαs subunit; 2 days after transfection, the cells were harvested for membrane preparations.13 All transfections were performed using the Fugene HD reagent (Promega Corp.).
Changes in cAMP levels were assessed in intact GP‐2.3 or UGS‐56 cells via the (GloSensor) cAMP reporter. The intact cells in white 96‐well plates were preloaded with luciferin in CO2‐independent culture media (Thermo Fisher) for 20 min at room temperature, then treated with a test ligand diluted in the same media and placed into a Envision plate reader (PerkinElmer, Waltham, MA, USA) for an additional 30 min, during which time cAMP‐dependent luminescence was measured at 2‐min intervals (ligand‐on phase). […] For washout responses, the cells were treated as above, and after the ligand‐on phase, the plate was removed from the plate reader, the cells were rinsed with media, then fresh media containing only luciferin was added and luminescence was measured for an additional 90 min (washout phase). EC50 values were determined using the 4‐parameter sigmoidal dose–response equation in Prism 8.0 (GraphPad Software, Inc., La Jolla, CA, USA).
The cells were then removed from the plate reader, rinsed twice with media to remove unbound ligand, and then fresh media containing luciferin but lacking ligand was added and luminescence was assessed for additional 90 min (Ligand wash‐out phase). Data are means (± SEM) of four experiments, each performed in triplicate. Figure S2. […] Panels A‐C represent three separate experiments. […] Figure S3. […] Serum and urine samples obtained from the TPTX and sham control rats of the two‐week daily‐administration experiment shown in Figure 4 were analyzed by ELISA for the indicated markers. A) serum 1,25(OH)2Vitamin‐D3. B) urinary deoxypyridinoline (DpD)/Cre. C) serum FGF23. […] Serum and urine samples obtained from the TPTX and sham control rats of the two‐week daily‐administration experiment shown in Figure 4 were analyzed for total inorganic phosphorus (Pi). […] Figure S5. […] B) The same peptides were assessed at a concentration of 3 nM for the capacity to stimulate cAMP formation in HKRK‐B64 cells (LLC‐PK1 cells stably expressing the hPTHR1, cAMP measured by RIA). […] Data in A and B are means (±SEM) of three experiments, each performed in triplicate or quadruplicate. […] D) The same analogs as in C were assessed at a 3.0 nM concentration for the capacity to stimulate cAMP formation in HKRK‐B64 cells. Data are means (±SEM) of three experiments, each performed in duplicate. […] Data are means (±SEM) of duplicate determinations of a single experiment representative of three others. Click here for additional data file.

## AVAEIQLMHQRAKWIQDLRRRFFLHHLIAEIHTAEI [M‐PTH(1‐14)/PTHrP(15‐36), [Ala^1,3,12,Gln^10,Arg^11,Trp^14]‐PTH(1‐14)/PTHrP(15–36)]
  Emax: 105 ± 4%
